Measurements: ChEMBL document CHEMBL3217649, “Synthesis of new N-substituted aminoquercitols from naturally available (+)-proto-quercitol and their -glucosidase inhibitory activity” (Medchemcomm, 2012)
The source made the active and inactive calls. No cut-off for these calls is given here.

Columns and labels:
Saccharomyces cerevisiae [1] = experiment: Inhibition of baker's yeast type 1 alpha-glucosidase using p-nitrophenyl-alpha-D-glucopyranoside as substrate at 10 mg/ml incubated for 10 mins prior to substrate challenge for 20 mins by microplate reader analysis
[2] = target: Sucrase-isomaltase, intestinal (Rattus norvegicus) (UniProt P23739); experiment: Inhibition of sucrase in rat small intestine using sucrose as substrate at 1 mg/ml after 40 mins by microplate reader analysis
[3] = Inhibition of type 2 alpha-glucosidase in rat small intestine using maltose as substrate after 10 mins by microplate reader analysis
[4] = target: Sucrase-isomaltase, intestinal (Rattus norvegicus, UniProt P23739); experiment: Inhibition of sucrase in rat small intestine using sucrose as substrate after 40 mins by microplate reader analysis
[5] = Inhibition of baker's yeast type 1 alpha-glucosidase using p-nitrophenyl-alpha-D-glucopyranoside as substrate incubated for 10 mins prior to substrate challenge for 20 mins by microplate reader analysis; design: species or system Saccharomyces cerevisiae
Rattus norvegicus [6] = species: Rattus norvegicus; experiment: Inhibition of type 2 alpha-glucosidase in rat small intestine using maltose as substrate at 1 mg/ml after 10 mins by microplate reader analysis
Rattus norvegicus [7] = species: Rattus norvegicus; experiment: Competitive inhibition of maltase in rat small intestine using maltose as substrate by Lineweaver-Burk plot analysis
[8] = Inhibition of maltase in rat small intestine using maltose as substrate by Lineweaver-Burk plot based secondary replot analysis; type: tissue-based
Saccharomyces cerevisiae [9] = experiment: Ratio of acarbose IC50 to compound IC50 for baker's yeast type 1 alpha-glucosidase
Rattus norvegicus [10] = species: Rattus norvegicus; experiment: Ratio of acarbose IC50 to compound IC50 for type 2 alpha-glucosidase in rat small intestine

Sucrase-isomaltase, intestinal, sequence (P23739 1-1013 limits assumed): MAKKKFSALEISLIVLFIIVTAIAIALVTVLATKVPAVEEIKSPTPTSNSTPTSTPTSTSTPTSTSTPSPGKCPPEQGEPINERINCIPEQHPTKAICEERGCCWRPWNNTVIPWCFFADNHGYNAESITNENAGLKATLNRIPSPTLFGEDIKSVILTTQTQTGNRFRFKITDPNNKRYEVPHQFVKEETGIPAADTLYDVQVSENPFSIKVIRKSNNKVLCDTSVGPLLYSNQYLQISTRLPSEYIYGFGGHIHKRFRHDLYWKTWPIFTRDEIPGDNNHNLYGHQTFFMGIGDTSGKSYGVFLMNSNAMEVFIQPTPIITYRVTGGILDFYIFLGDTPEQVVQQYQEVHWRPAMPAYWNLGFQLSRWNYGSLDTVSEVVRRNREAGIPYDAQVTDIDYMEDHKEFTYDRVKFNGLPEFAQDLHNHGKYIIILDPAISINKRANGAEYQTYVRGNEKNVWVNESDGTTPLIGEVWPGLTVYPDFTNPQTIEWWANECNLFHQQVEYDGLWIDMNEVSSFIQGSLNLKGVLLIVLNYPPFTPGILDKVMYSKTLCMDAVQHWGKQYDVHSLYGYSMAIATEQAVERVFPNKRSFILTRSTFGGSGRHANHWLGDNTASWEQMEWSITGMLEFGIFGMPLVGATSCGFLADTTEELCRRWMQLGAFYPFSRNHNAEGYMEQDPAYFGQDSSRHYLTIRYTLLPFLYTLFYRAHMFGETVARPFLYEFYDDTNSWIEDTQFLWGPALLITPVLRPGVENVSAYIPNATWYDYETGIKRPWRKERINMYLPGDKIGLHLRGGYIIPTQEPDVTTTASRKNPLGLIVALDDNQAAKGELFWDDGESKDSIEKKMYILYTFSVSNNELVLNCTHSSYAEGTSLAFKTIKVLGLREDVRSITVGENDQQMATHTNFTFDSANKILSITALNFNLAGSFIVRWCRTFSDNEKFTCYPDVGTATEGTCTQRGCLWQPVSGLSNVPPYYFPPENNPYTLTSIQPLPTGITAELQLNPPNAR
Sucrase-isomaltase, intestinal, sequence (P23739 1014-1841 limits assumed): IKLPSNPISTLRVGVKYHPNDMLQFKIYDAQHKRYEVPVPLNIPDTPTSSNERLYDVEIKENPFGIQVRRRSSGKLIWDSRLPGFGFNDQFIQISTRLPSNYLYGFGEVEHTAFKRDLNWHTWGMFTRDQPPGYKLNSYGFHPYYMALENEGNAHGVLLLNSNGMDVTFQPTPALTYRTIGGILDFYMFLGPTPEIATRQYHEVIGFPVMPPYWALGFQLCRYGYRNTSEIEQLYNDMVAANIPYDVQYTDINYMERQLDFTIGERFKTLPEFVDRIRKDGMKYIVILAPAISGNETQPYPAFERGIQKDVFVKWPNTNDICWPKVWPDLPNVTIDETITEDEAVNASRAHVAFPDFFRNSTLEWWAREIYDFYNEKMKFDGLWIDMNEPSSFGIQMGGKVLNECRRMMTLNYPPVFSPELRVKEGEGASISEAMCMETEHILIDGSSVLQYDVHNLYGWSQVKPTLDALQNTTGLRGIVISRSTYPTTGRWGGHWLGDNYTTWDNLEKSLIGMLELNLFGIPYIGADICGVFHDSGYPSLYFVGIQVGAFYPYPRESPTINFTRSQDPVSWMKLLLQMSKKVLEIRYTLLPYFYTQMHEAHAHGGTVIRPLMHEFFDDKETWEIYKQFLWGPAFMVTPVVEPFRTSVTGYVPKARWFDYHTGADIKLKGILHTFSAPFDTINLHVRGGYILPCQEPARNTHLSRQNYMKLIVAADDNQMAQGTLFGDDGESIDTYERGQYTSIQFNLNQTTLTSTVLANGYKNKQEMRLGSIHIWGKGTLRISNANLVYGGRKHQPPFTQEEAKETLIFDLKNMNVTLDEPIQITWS
Sucrase-isomaltase, intestinal (Rattus norvegicus), sequence (P23739 1-1013 limits assumed): as the sequence (P23739 1-1013 limits assumed) above
Sucrase-isomaltase, intestinal (Rattus norvegicus), sequence (P23739 1014-1841 limits assumed): as the sequence (P23739 1014-1841 limits assumed) above

inhibition (Saccharomyces cerevisiae [1]) | inhibition [2] | IC50 [3] | Compound | IC50 [5] | also measured
< 30% | < 30% | 48 µM | CCCCCCN(CCCCCC)[C@@H]1C[C@@H](O)[C@H](O)[C@@H](O)[C@H]1O |  | 
< 30% |  | 32 µM | CCCCCCN(CCCCCC)[C@H]1C[C@@H](O)[C@H](O)[C@@H](O)[C@H]1O |  | IC50 [4]: 120 µM
< 30% | < 30% | 1.5 µM | CCCCCCCCCCCCN[C@@H]1C[C@@H](O)[C@H](O)[C@@H](O)[C@H]1O |  | 
 |  | 3.8 µM | CCCCCC(=O)N[C@@H]1C[C@@H](O)[C@H](O)[C@@H](O)[C@H]1O | 1700 µM | IC50 [4]: 6.1 µM
 | < 30% | 180 µM | CC(=O)N[C@H]1C[C@@H](O)[C@H](O)[C@@H](O)[C@H]1O | 270 µM | 
 |  | 19 µM | CCCC(=O)N[C@@H]1C[C@@H](O)[C@H](O)[C@@H](O)[C@H]1O | 1200 µM | IC50 [4]: 4.7 µM
 |  | 5.3 µM | CC(=O)N[C@@H]1C[C@@H](O)[C@H](O)[C@@H](O)[C@H]1O | 150 µM | IC50 [4]: 5.3 µM; Ratio IC50 (Saccharomyces cerevisiae [9]): 3
< 30% | < 30% | 7.4 µM | CCCCCCCCCCCC(=O)N[C@@H]1C[C@@H](O)[C@H](O)[C@@H](O)[C@H]1O |  | 
< 30% | < 30% | 3.5 µM | CCCCCCCCCC(=O)N[C@@H]1C[C@@H](O)[C@H](O)[C@@H](O)[C@H]1O |  | 
< 30% | < 30% | 4.2 µM | CCCCCC(=O)N[C@H]1C[C@@H](O)[C@H](O)[C@@H](O)[C@H]1O |  | 
< 30% | < 30% | 10 µM | CCCCCCCCCCCC(=O)N[C@H]1C[C@@H](O)[C@H](O)[C@@H](O)[C@H]1O |  | 
< 30% | < 30% | 2 µM | CCCCCCCCCC(=O)N[C@H]1C[C@@H](O)[C@H](O)[C@@H](O)[C@H]1O |  | competitive inhibition (Lineweaver-Burk) (Rattus norvegicus [7]): Active; Ki [8]: 1.5 µM
< 30% | < 30% | 1.9 µM | CCCCCCCCCCCCN[C@H]1C[C@@H](O)[C@H](O)[C@@H](O)[C@H]1O |  | 
 |  | 1.5 µM | C[C@H]1O[C@H](O[C@H]2[C@H](O)[C@@H](O)[C@@H](O[C@H]3[C@H](O)[C@@H](O)C(O)O[C@@H]3CO)O[C@@H]2CO)[C@H](O)[C@@H](O)[C@@H]1N[C@H]1C=C(CO)[C@@H](O)[C@H](O)[C@H]1O (stereo partly drawn) [ACARBOSE] | 480 µM | competitive inhibition (Lineweaver-Burk) (Rattus norvegicus [7]): Active; Ki [8]: 0.99 µM
< 30% | < 30% | 38 µM | CCCC(=O)N[C@H]1C[C@@H](O)[C@H](O)[C@@H](O)[C@H]1O |  | 

Compound | inhibition (Saccharomyces cerevisiae [1]) | inhibition [2] | IC50 [3] | IC50 [5] | also measured
CCCCN(CCCC)[C@H]1C[C@@H](O)[C@H](O)[C@@H](O)[C@H]1O |  |  | 24 µM | 2300 µM | IC50 [4]: 36 µM
CCN[C@H]1C[C@@H](O)[C@H](O)[C@@H](O)[C@H]1O | < 30% | < 30% |  |  | inhibition (Rattus norvegicus [6]): 30%
CCN(CC)[C@@H]1C[C@@H](O)[C@H](O)[C@@H](O)[C@H]1O |  | < 30% | 5 µM | 1600 µM | competitive inhibition (Lineweaver-Burk) (Rattus norvegicus [7]): Active; Ki [8]: 3.5 µM
CCN(CC)[C@H]1C[C@@H](O)[C@H](O)[C@@H](O)[C@H]1O |  |  | 21 µM | 1600 µM | IC50 [4]: 360 µM
CCCCCCN[C@H]1C[C@@H](O)[C@H](O)[C@@H](O)[C@H]1O | < 30% | < 30% | 2.5 µM |  | 
CCCCCCCCCCN[C@@H]1C[C@@H](O)[C@H](O)[C@@H](O)[C@H]1O | < 30% | < 30% | 0.41 µM |  | Ratio IC50 (Rattus norvegicus [10]): 3
CCCCCCCCCCN[C@H]1C[C@@H](O)[C@H](O)[C@@H](O)[C@H]1O | < 30% |  | 2 µM |  | IC50 [4]: 410 µM
CCCCN[C@@H]1C[C@@H](O)[C@H](O)[C@@H](O)[C@H]1O |  | < 30% | 57 µM | 1200 µM | 
CCCCN(CCCC)[C@@H]1C[C@@H](O)[C@H](O)[C@@H](O)[C@H]1O |  | < 30% | 7.6 µM | 1800 µM | 
CCCCCCN[C@@H]1C[C@@H](O)[C@H](O)[C@@H](O)[C@H]1O |  | < 30% | 0.24 µM | 400 µM | competitive inhibition (Lineweaver-Burk) (Rattus norvegicus [7]): Active; Ki [8]: 0.73 µM; Ratio IC50 (Rattus norvegicus [10]): 3
CCCCN[C@H]1C[C@@H](O)[C@H](O)[C@@H](O)[C@H]1O | < 30% | < 30% | 290 µM |  | 
